The nature of series [1]: refractive index (Na D-line) (dimensionless). The settings on record: 293.15 K; 101.33 kPa; Liquid; Standard Abbe refractometry.
The conditions of series [2]: 101.33 kPa, Liquid, Vibrating tube method.

Numbers after ± are expanded uncertainties.

Drawing on the NIST ThermoML archive (doi:10.1016/j.jct.2011.10.027), this text covers refractive index and mass density for seven molecules.

By refractive index is commonly meant the speed of light in vacuum divided by its phase velocity in the sample. The mass density is the mass of a sample divided by its volume. Regarding `Cc1ccc(C)cc1` [1,4-dimethylbenzene], the refractive index in series [1] turned out to be 1.4922 ± 0.0005. Besides, the mass density in series [2] (293.15 K) is given as 861.02 ± 0.24 kg/m3; in series [2] (298.15 K), 856.68 ± 0.24 kg/m3; in series [2] (303.15 K), 852.33 ± 0.24 kg/m3; in series [2] (313.15 K), 843.59 ± 0.24 kg/m3; in series [2] (323.15 K), 834.81 ± 0.24 kg/m3; in series [2] (333.15 K) it was 825.96 ± 0.24 kg/m3.
For `Cc1cccc(C)c1` [1,3-dimethylbenzene], in series [1], the refractive index was found to be 1.4936 ± 0.0005. The mass density in series [2] (293.15 K) is 864.18 ± 0.24 kg/m3; in series [2] (298.15 K), 859.88 ± 0.24 kg/m3; in series [2] (303.15 K), 855.56 ± 0.24 kg/m3; in series [2] (313.15 K), 846.85 ± 0.24 kg/m3; in series [2] (323.15 K), 837.92 ± 0.24 kg/m3; in series [2] (333.15 K) it was 829.01 ± 0.24 kg/m3.
Turning to `CCc1ccccc1` [ethylbenzene], the refractive index in series [1] was found to be 1.4922 ± 0.0005. Also, the mass density in series [2] (293.15 K) turned out to be 866.99 ± 0.24 kg/m3; in series [2] (298.15 K) it was 862.59 ± 0.24 kg/m3; in series [2] (303.15 K), 858.18 ± 0.24 kg/m3; in series [2] (313.15 K), 849.33 ± 0.24 kg/m3; in series [2] (323.15 K), 840.42 ± 0.24 kg/m3; in series [2] (333.15 K), 831.42 ± 0.24 kg/m3.
For the molecule `O=[N+]([O-])c1ccccc1` [nitrobenzene], the refractive index in series [1] amounted to 1.549 ± 0.0005. The mass density in series [2] (293.15 K) was found to be 1203.13 ± 0.4 kg/m3; in series [2] (298.15 K), 1198.17 ± 0.39 kg/m3; in series [2] (303.15 K) it was 1193.21 ± 0.39 kg/m3; in series [2] (313.15 K), 1183.3 ± 0.38 kg/m3; in series [2] (323.15 K), 1173.38 ± 0.37 kg/m3; in series [2] (333.15 K) it was 1163.45 ± 0.36 kg/m3.
In the case of `CCCCN(CCCC)CCCC` [tributylamine], the refractive index in series [1] came to 1.4259 ± 0.0005. Besides, the mass density in series [2] (293.15 K) came to 776.91 ± 0.24 kg/m3; in series [2] (298.15 K), 773.18 ± 0.24 kg/m3; in series [2] (303.15 K) it was 769.45 ± 0.24 kg/m3; in series [2] (313.15 K) it was 761.97 ± 0.24 kg/m3; in series [2] (323.15 K) it was 754.45 ± 0.24 kg/m3; in series [2] (333.15 K) it was 746.88 ± 0.24 kg/m3.
As for `Cc1ccccc1C` [1,2-dimethylbenzene], the refractive index in series [1] is on record as 1.5015 ± 0.0005. Moreover, the mass density in series [2] (293.15 K) is 879.79 ± 0.23 kg/m3; in series [2] (298.15 K), 875.58 ± 0.23 kg/m3; in series [2] (303.15 K), 871.37 ± 0.24 kg/m3; in series [2] (313.15 K), 862.78 ± 0.24 kg/m3; in series [2] (323.15 K), 854.02 ± 0.24 kg/m3; in series [2] (333.15 K), 845.2 ± 0.24 kg/m3.
For the molecule `Cc1ccccc1` [toluene], the refractive index in series [1] stood at 1.493 ± 0.0005. In addition, the mass density in series [2] (293.15 K) is reported as 866.89 ± 0.13 kg/m3; in series [2] (298.15 K) it was 862.24 ± 0.13 kg/m3; in series [2] (303.15 K), 857.58 ± 0.13 kg/m3; in series [2] (313.15 K) it was 848.2 ± 0.13 kg/m3; in series [2] (323.15 K), 838.76 ± 0.13 kg/m3; in series [2] (333.15 K), 829.22 ± 0.14 kg/m3.
